Reference: patent US11021468B2, “TGF-ß inhibitors” (Rigel Pharmaceuticals, Inc., priority 2015, dated 2021)

What was measured:
GDF8 = test: AlphaScreen SureFire SMAD3 (p-Ser423/425) assay, GDF8-stimulated (GDF pSMAD (MPC11)); format: cell-based; details: p-SMAD-3 (Ser423/425)
Description: (§1) Example 2: AlphaScreen® SureFire® SMAD3 (p-Ser423/425) Assay
(§2) The p-SMAD-3 (Ser423/425) SureFire® assay has been designed to measure the phosphorylation of endogenous cellular p-SMAD-3 (Ser423/425) in cell lysates and is a system for the screening of both modulators of receptor activation (e.g. agonists and antagonists) as well as agents acting intracellularly, such as small molecule inhibitors of upstream events. The assay will measure p-SMAD-3 (Ser423/425) activation by either cloned or endogenous receptors, and can be applied to primary cells.
(§3) P-SMAD-3 (Ser423/425) SureFire® Assay Protocols
(§4) 96-well Assay Protocol for 293FT and RMS13 adherent cells can be carried out manually or in high throughput with liquid handling robots.
(§5) The cells (80 μL of cells for 96 well plates) were plated in collagen coated tissue culture plates in RPMI or FreeStyle medium (Invitrogen) and incubated overnight. For manual analysis, 6 plates for GDF8, 6 plates for TGFβ, and optionally 6 plates for Alk5ca(ALK5 constitutively active) were used.
(§6) The compound dilution plates were prepared as follows: 12 μL of DMSO was transferred into first column of 96-well plate, and 16 μL of DMSO was transferred into columns 2-12 of the 96-well plate. 12 μL of compound solution was transferred into first column of the DMSO-containing 96-well plate. Three-fold dilution was performed up to column 10 of the DMSO-containing 96-well plate.
(§7) The plate containing cells were treated with compounds for about 10 minutes, and then ligand was added. GDF8 or TGFb was added to plates to stimulate. 293FL cells were stimulated for 90 minutes at 37° C.; and RMS13 cells were stimulated for 60 minutes at 37° C. The medium was then removed from the cells, and 1× Lysis Buffer (about 25 μL) was added and the plate was gently agitated on plate shaker for 5-10 minutes.
(§8) The lysate (5 μL) was then placed into 384-well shallow plates avoiding the generation of bubbles. To this, the Reaction Buffer+Activation Buffer+AlphaScreen® Acceptor beads mixture (5 μL) was added. The plate was sealed with adhesive cover and shielded from light (e.g., with metal foil), and agitated gently on plate shaker for 2 hours at room temperature.
(§9) Dilution buffer+AlphaScreen® Donor beads (2 μL) was then added, and the plate was intubated on the plate shaker for an additional 1½ hours. After completion, the plate was read on Synergy-4 or Enspire plate reader, using AlphaScreen® pSMAD3® settings.
(§10) Representative results for inhibition of GDF8 (data=GDF pSMAD (MPC11) (μM)) and TGF-β (data=TGF-β pSMAD (MPC-11) (μM)) signaling are shown in Table 1: […]

TGF-β = test: AlphaScreen SureFire SMAD3 (p-Ser423/425) assay, TGF-β-stimulated (TGF-β pSMAD (MPC-11)); format: cell-based; details: p-SMAD-3 (Ser423/425)
Description: as §1, §2, §3, §4, §5, §6, §7, §8, §9, §10

[1] = Mus musculus, MPC-11, inhibition of GDF8 signaling
[2] = Mus musculus, MPC-11, inhibition of TGF-β signaling

Row | Compound | IC50 (GDF8; [1]) [nM] | IC50 (TGF-β; [2]) [nM] | IC50 (GDF8; inhibition of GDF8 signaling) [nM] | IC50 (TGF-β; inhibition of TGF-β signaling) [nM]
1 | Cc1cc(F)ccc1-c1ncc(F)c(Nc2cnc3[nH]ncc3c2)n1 [Compound 12, N-(5-Fluoro-2-(4-fluoro-2-methylphenyl)pyrimidin-4-yl)-1H-pyrazolo[3,4-b]pyridin-5-amine] | 481 | 1590 |  | 
2 | Cc1cccc(-c2nc(Nc3ccc4[nH]ncc4c3)c3[nH]ccc3n2)c1 [Compound 11, N-(1H-Indazol-5-yl)-2-(3-methylphenyl)-5H-pyrrolo[3,2-d]pyrimidin-4-amine] | 917 | 5330 |  | 
3 | Cc1cccc(-c2nc(Nc3cnc4[nH]ncc4c3)c3ccccc3n2)n1 [Compound 2, 2-(6-Methylpyridin-2-yl)-N-(1H-pyrazolo[3,4-b]pyridin-5-yl)quinazolin-4-amine] | 144 | 318 |  | 
4 | Fc1ccccc1-c1ncc(F)c(Nc2ccc3[nH]ncc3c2)n1 [Compound 24, N-(5-Fluoro-2-(2-fluorophenyl)pyrimidin-4-yl)-1H-indazol-5-amine] | 846 | 3990 |  | 
5 | Fc1ccc(-c2nccc(Nc3cnc4[nH]ncc4c3)n2)cc1 [Compound 4, N-(2-(4-Fluorophenyl)pyrimidin-4-yl)-1H-pyrazolo[3,4-b]pyridin-5-amine] | 171 | 840 |  | 
6 | Fc1ccc(-c2nccc(Nc3cnc4[nH]ncc4c3)n2)cc1F [Compound 3, N-(2-(3,4-Difluorophenyl)pyrimidin-4-yl)-1H-pyrazolo[3,4-b]pyridin-5-amine] | 382 | 1530 |  | 
7 | Fc1cc(F)cc(-c2nccc(Nc3ccc4[nH]ncc4c3)n2)c1 [Compound 27, N-(2-(3,5-Difluorophenyl)pyrimidin-4-yl)-1H-indazol-5-amine] | 287 | 2200 |  | 
8 | COc1ccc(-c2nccc(Nc3ccc4[nH]ncc4c3)n2)cc1F [Compound 28, N-(2-(3-Fluoro-4-methoxyphenyl)pyrimidin-4-yl)-1H-indazol-5-amine] | 363 | 2140 |  | 
9 | Cc1cnc(-c2cccc(F)c2)nc1Nc1cnc2[nH]ncc2c1 [Compound 13, N-(2-(3-Fluorophenyl)-5-methylpyrimidin-4-yl)-1H-pyrazolo[3,4-b]pyridin-5-amine] | 883 | 2720 |  | 
10 | Fc1ccc(-c2nccc(Nc3ccc4[nH]ncc4c3)n2)cc1F [Compound 22, N-(2-(3,4-Difluorophenyl)pyrimidin-4-yl)-1H-indazol-5-amine] |  |  | 32.1 | 112
11 | Fc1ccc(-c2nc(Nc3ccc4[nH]ncc4c3)c3cc[nH]c3n2)cc1 [Compound 5, 2-(4-Fluorophenyl)-N-(1H-indazol-5-yl)-7H-pyrrolo[2,3-d]pyrimidin-4-amine] | 66.1 | 751 |  | 
12 | Fc1cccc(-c2nccc(Nc3ccc4[nH]ncc4c3)n2)c1 [Compound 18, N-(2-(3-Fluorophenyl)pyrimidin-4-yl)-1H-indazol-5-amine] | 154 | 1360 |  | 
13 | Cc1cnc(-c2ccc(F)cc2)nc1Nc1cnc2[nH]ncc2c1 [Compound 14, N-(2-(4-Fluorophenyl)-5-methylpyrimidin-4-yl)-1H-pyrazolo[3,4-b]pyridin-5-amine] | 306 | 732 |  | 
14 | Fc1ccc(-c2nc(Nc3ccc4[nH]ncc4c3)c3[nH]ccc3n2)cc1 [Compound 10, 2-(4-Fluorophenyl)-N-(1H-indazol-5-yl)-5H-pyrrolo[3,2-d]pyrimidin-4-amine] | 644 | 5130 |  | 
15 | Cc1ccc(F)cc1-c1nccc(Nc2ccc3[nH]ncc3c2)n1 [Compound 26, N-(2-(5-fluoro-2-methylphenyl)pyrimidin-4-yl)-1H-indazol-5-amine] | 126 | 1000 |  | 
16 | Fc1ccc(-c2nc(Nc3ccc4[nH]ncc4c3)c3cc[nH]c3n2)cc1F [Compound 6, 2-(3,4-Difluorophenyl)-N-(1H-indazol-5-yl)-7H-pyrrolo[2,3-d]pyrimidin-4-amine] | 264 | 1680 |  | 

Second part, the compound after the results:

Row | IC50 (GDF8; [1]) [nM] | IC50 (TGF-β; [2]) [nM] | IC50 (GDF8; inhibition of GDF8 signaling) [nM] | IC50 (TGF-β; inhibition of TGF-β signaling) [nM] | Compound
17 | 463 | 2710 |  |  | Nc1cccc(-c2nccc(Nc3ccc4[nH]ncc4c3)n2)c1 [Compound 31, N-(2-(3-Aminophenyl)pyrimidin-4-yl)-1H-indazol-5-amine]
18 | 258 | 2000 |  |  | Fc1ccc(-c2ncc(F)c(Nc3ccc4[nH]ncc4c3)n2)cc1F [Compound 35, N-(2-(3,4-Difluorophenyl)-5-fluoropyrimidin-4-yl)-1H-indazol-5-amine]
19 | 335 | 381 |  |  | COc1cc2[nH]ncc2cc1Nc1nc(-c2ccccc2F)ncc1C [Compound 62, N-(2-(2-Fluorophenyl)-5-methylpyrimidin-4-yl)-6-methoxy-1H-indazol-5-amine]
20 | 204 | 436 |  |  | Cc1ccccc1-c1ncc(C)c(Nc2ccc3[nH]ncc3c2)n1 [Compound 39, N-(2-(2-Methylphenyl)-5-methylpyrimidin-4-yl)-1H-indazol-5-amine]
21 | 394 | 808 |  |  | Cc1cccc(-c2ncc(C)c(Nc3cc4cn[nH]c4cc3F)n2)c1 [Compound 58, 6-Fluoro-N-(2-(3-methylphenyl)-5-methylpyrimidin-4-yl)-1H-indazol-5-amine]
22 | 21.5 | 85.3 |  |  | N#Cc1cccc(-c2nccc(Nc3ccc4[nH]ncc4c3)n2)c1 [Compound 29, N-(2-(3-Cyanophenyl)pyrimidin-4-yl)-1H-indazol-5-amine]
23 | 1050 | 3490 |  |  | Fc1ccc(-c2nc(Nc3cnc4[nH]ncc4c3)c3cc[nH]c3n2)cc1 [Compound 50, N-(2-(4-Fluorophenyl)-7H-pyrrolo[2,3-d]pyrimidin-4-yl)-1H-pyrazolo[3,4-b]pyridin-5-amine]
24 |  |  | 777 | 829 | Cc1cc(-c2ncc(C)c(Nc3cc4cn[nH]c4cc3C)n2)ccc1F [Compound 51, N-(2-(4-Fluoro-3-methylphenyl)-5-methylpyrimidin-4-yl)-6-methyl-1H-indazol-5-amine]
25 |  |  | 184 | 281 | Cc1cc(-c2ncc(C)c(Nc3cc4cn[nH]c4cc3C)n2)ccc1F [Compound 56, N-(2-(4-Fluoro-3-methylphenyl)-5-methylpyrimidin-4-yl)-6-methyl-1H-indazol-5-amine]
26 | 260 | 629 |  |  | Cc1ccc(C)c(-c2ncc(C)c(Nc3cc4cn[nH]c4cc3C)n2)c1 [Compound 55, N-(2-(2,5-Dimethylphenyl)-5-methylpyrimidin-4-yl)-6-methyl-1H-indazol-5-amine]
27 | 852 | 1820 |  |  | Cc1cnc(-c2cccc(F)c2)nc1Nc1cc2cn[nH]c2cc1F [Compound 57, 6-Fluoro-N-(2-(3-fluorophenyl)-5-methylpyrimidin-4-yl)-1H-indazol-5-amine]
28 | 652 | 4370 |  |  | FC(F)(F)c1cccc(-c2nccc(Nc3ccc4[nH]ncc4c3)n2)c1 [Compound 45, N-(2-(3-Trifluoromethylphenyl)pyrimidin-4-yl)-1H-indazol-5-amine]
29 | 454 | 1040 |  |  | Cc1cnc(-c2ccc(F)c(F)c2)nc1Nc1cc2cn[nH]c2cc1F [Compound 60, 6-Fluoro-N-(2-(3,4-difluorophenyl)-5-methylpyrimidin-4-yl)-1H-indazol-5-amine]
30 | 116 | 553 |  |  | Cc1cccc(-c2nccc(Nc3ccc4[nH]ncc4c3)n2)c1 [Compound 32, N-(2-(3-Methylphenyl)pyrimidin-4-yl)-1H-indazol-5-amine]
31 | 492 | 662 |  |  | Cc1cc2[nH]ncc2cc1Nc1nc(-c2ccc(F)c(F)c2)ncc1C [Compound 54, N-(2-(3,4-Difluorophenyl)-5-methylpyrimidin-4-yl)-6-methyl-1H-indazol-5-amine]
32 | 312 | 395 |  |  | COc1cc2[nH]ncc2cc1Nc1nc(-c2ccc(F)c(F)c2)ncc1C [Compound 63, N-(2-(3,4-Difluorophenyl)-5-methylpyrimidin-4-yl)-6-methoxy-1H-indazol-5-amine]
33 | 555 | 3060 |  |  | Fc1cccc(-c2ncc(F)c(Nc3ccc4[nH]ncc4c3)n2)c1 [Compound 36, N-(5-Fluoro-2-(3-fluorophenyl)pyrimidin-4-yl)-1H-indazol-5-amine]
